Assays:
[1] = Half life in Sprague-Dawley rat at 5 to 10 mg/kg, po administered as cassette dose measured upto 24 hrs by LC-MS analysis; assay type: ADME, organism-based; settings: in vivo, dose 5-10 mg/kg
[2] = Tmax in Sprague-Dawley rat at 5 to 10 mg/kg, po administered as cassette dose measured upto 24 hrs by LC-MS analysis; assay type: ADME, organism-based; settings: in vivo, dose 5-10 mg/kg
[3] = Cmax in Sprague-Dawley rat at 5 to 10 mg/kg, po administered as cassette dose measured upto 24 hrs by LC-MS analysis; assay type: ADME, organism-based; parameters: time < 24 hrs, route po; settings: in vivo, dose 5-10 mg/kg
[4] = AUC (0 to t) in Sprague-Dawley rat at 5 to 10 mg/kg, po administered as cassette dose measured upto 24 hrs by LC-MS analysis; assay type: ADME, organism-based; parameters: time < 24 hrs, route po; settings: in vivo, dose 5-10 mg/kg
[5] = Dose normalized AUC (0 to t) in Sprague-Dawley rat at 5 to 10 mg/kg, po administered as cassette dose measured upto 24 hrs by LC-MS analysis; assay type: ADME, organism-based; settings: in vivo, dose 5-10 mg/kg
[6] = target: T1, Tyrosine-protein kinase BTK (Homo sapiens, UniProt Q06187); experiment: Induction of BTK degradation in human MINO cells incubated for 24 hrs by Western blot; assay type: cell-based; settings: dose 1-1000 nM, DDE = dose-dependent effect
T1 sequence (Q06187 whole entry): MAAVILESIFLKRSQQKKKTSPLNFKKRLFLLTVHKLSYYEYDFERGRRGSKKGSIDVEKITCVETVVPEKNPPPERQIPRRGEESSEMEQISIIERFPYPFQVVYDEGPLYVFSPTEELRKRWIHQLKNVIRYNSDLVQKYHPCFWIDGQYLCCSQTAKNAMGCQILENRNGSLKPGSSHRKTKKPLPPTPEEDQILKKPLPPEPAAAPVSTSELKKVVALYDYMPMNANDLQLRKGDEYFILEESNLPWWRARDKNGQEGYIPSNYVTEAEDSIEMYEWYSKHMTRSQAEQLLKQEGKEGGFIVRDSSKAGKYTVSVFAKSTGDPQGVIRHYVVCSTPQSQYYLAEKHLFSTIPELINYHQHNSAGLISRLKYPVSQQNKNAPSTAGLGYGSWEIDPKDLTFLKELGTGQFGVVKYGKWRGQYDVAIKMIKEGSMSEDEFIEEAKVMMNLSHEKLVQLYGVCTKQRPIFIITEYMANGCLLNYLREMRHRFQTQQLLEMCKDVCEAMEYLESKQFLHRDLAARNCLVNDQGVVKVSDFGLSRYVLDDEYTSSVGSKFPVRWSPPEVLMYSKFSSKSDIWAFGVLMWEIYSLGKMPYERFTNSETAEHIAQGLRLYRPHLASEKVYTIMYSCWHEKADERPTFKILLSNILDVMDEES

[7] = target: T1, Tyrosine-protein kinase BTK; experiment: Inhibition of BTK (unknown origin)

Row | Structure (SMILES) | half-life [1] [h] | Tmax [2] [h] | Cmax [3] [ng/mL] | AUC(0-t) at 24 h [4] [ng·h/mL] | AUCt/dose [5] [ng·h/mL/mg] | Activity [6] | IC50 [7] [nM]
1 | O=C1CCC(N2Cc3c(OC4CN(CC#CCN5CCN(c6ccc(C(F)(F)F)cc6)CC5)C4)cccc3C2=O)C(=O)N1 (stereo not drawn) | 5.7 | 0.3 | 232 | 49 | 128 | – | –
2 | Nc1ncnc2c1c(-c1ccc(Oc3ccccc3)cc1)nn2[C@@H]1CCCN(C(=O)CCCCCCC(=O)NCC#CCN2CCN(CC#Cc3ccc4c(c3)CN(C3CCC(=O)NC3=O)C4=O)CC2)C1 (stereo partly drawn) | – | – | – | – | – | Dde | 9
3 | O=C1CCC(N2C(=O)c3cccc(NCCN4CCN(CC#CCOc5ccc(C(F)(F)F)cc5)CC4)c3C2=O)C(=O)N1 (stereo not drawn) | 17.7 | 3.7 | 24 | 328 | 65 | – | –
4 | O=C1CCC(N2C(=O)c3cccc(N4CCN(CC5CCN(CCCCOc6ccc(C(F)(F)F)cc6)CC5)CC4)c3C2=O)C(=O)N1 (stereo not drawn) | 112 | 10.7 | 68 | 1130 | 113 | – | –
5 | O=C1CCC(N2C(=O)c3cccc(N4CCN(CC#CCN5CCN(c6ccc(C(F)(F)F)cc6)CC5)CC4)c3C2=O)C(=O)N1 (stereo not drawn) | 10.3 | 0.9 | 194 | 1720 | 172 | – | –
6 | O=C1CCC(N2C(=O)c3ccc(N4CCN(CC#CCN5CCN(c6ccc(C(F)(F)F)cc6)CC5)CC4)cc3C2=O)C(=O)N1 (stereo not drawn) | 14 | 2.8 | 200 | 1940 | 194 | – | –
7 | O=C1CCC(N2C(=O)c3ccc(N4CCN(C5CN(CCCCOc6ccc(C(F)(F)F)cc6)C5)CC4)cc3C2=O)C(=O)N1 (stereo not drawn) | 3.4 | 10 | 223 | 2810 | 281 | – | –
8 | Nc1ncnc2c1c(-c1ccc(Oc3ccccc3)cc1)nn2[C@@H]1CCCN(C(=O)CCC(=O)NCC#CCN2CCN(CC#Cc3ccc4c(c3)CN(C3CCC(=O)NC3=O)C4=O)CC2)C1 (stereo partly drawn) | – | – | – | – | – | Dde | 9
9 | O=C1CCC(N2C(=O)c3cccc(N4CCN(C5CCN(CCCCOc6ccc(C(F)(F)F)cc6)CC5)CC4)c3C2=O)C(=O)N1 (stereo not drawn) | 5.3 | 4.7 | 71 | 1160 | 116 | – | –
10 | O=C1CCC(N2C(=O)c3ccc(N4CCN(C5CN(CC#CCOc6ccc(C(F)(F)F)cc6)C5)CC4)cc3C2=O)C(=O)N1 (stereo not drawn) | 8.6 | 1.2 | 1050 | 7080 | 708 | – | –
11 | O=C1CCC(N2Cc3cc(C#CCN4CCN(CC#CCOc5ccc(C(F)(F)F)cc5)CC4)ccc3C2=O)C(=O)N1 (stereo not drawn) | 6 | 8.3 | 1550 | 15200 | 1524 | – | –
12 | O=C1CCC(N2C(=O)c3cccc(N4CCN(CC5CCN(CC#CCOc6ccc(C(F)(F)F)cc6)CC5)CC4)c3C2=O)C(=O)N1 (stereo not drawn) | 8.9 | 11 | 419 | 4350 | 435 | – | –
13 | O=C1CCC(N2Cc3cc(CCCN4CCN(CC#CCOc5ccc(C(F)(F)F)cc5)CC4)ccc3C2=O)C(=O)N1 (stereo not drawn) | 2.2 | 0.3 | 99 | 236 | 47 | – | –
14 | O=C1CCC(N2Cc3ccc(C#CCN4CCN(CC#CCOc5ccc(C(F)(F)F)cc5)CC4)cc3C2=O)C(=O)N1 (stereo not drawn) | – | 8.5 | 1250 | 7960 | 796 | – | –
15 | O=C1CCC(N2Cc3cc(C#CCN4CCN(c5ccc(C(F)(F)F)cc5)CC4)ccc3C2=O)C(=O)N1 (stereo not drawn) | 4 | 6.7 | 1050 | 15300 | 1527 | – | –
16 | O=C1CCC(N2C(=O)c3cccc(N4CCN(C5CCN(CC#CCOc6ccc(C(F)(F)F)cc6)CC5)CC4)c3C2=O)C(=O)N1 (stereo not drawn) | 9.7 | 1.2 | 269 | 142 | 143 | – | –
